In US20240208992A1, “MACROCYCLES AS CFTR MODULATORS” (Idorsia Pharmaceuticals Ltd, priority 2021, published 2024):

Molecular target: human F508del-CFTR (Homo sapiens, UniProt P13569, DEL508-508)
Assay: F508del-CFTR cell surface expression (corrector activity), DiscoveRx ß-galactosidase complementation chemiluminescence assay in recombinant U2OS cell line;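 also: U2OS cells co-expressing ProLink-tagged F508del-CFTR and a membrane-anchored enzyme acceptor, where more surface CFTR restores β-galactosidase activity measured by chemiluminescence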
Conditions: for EC50: EC50, F508del-CFTR cell surface expression; for Emax: U2OS
[1] = U2OS cells, 16h compound incubation, geomean values
[2] = in relation to Emax of corrector lumacaftor (=100%), arithmetic mean values
[3] = U2OS cells, 16h compound incubation, geomean of several measurements
[4] = in relation to the Emax of the corrector lumacaftor (=100%), U2OS cells, 16h compound incubation, arithmetic mean

Sequence of human F508del-CFTR (P13569 with tags, fused parts or gaps DEL508-508): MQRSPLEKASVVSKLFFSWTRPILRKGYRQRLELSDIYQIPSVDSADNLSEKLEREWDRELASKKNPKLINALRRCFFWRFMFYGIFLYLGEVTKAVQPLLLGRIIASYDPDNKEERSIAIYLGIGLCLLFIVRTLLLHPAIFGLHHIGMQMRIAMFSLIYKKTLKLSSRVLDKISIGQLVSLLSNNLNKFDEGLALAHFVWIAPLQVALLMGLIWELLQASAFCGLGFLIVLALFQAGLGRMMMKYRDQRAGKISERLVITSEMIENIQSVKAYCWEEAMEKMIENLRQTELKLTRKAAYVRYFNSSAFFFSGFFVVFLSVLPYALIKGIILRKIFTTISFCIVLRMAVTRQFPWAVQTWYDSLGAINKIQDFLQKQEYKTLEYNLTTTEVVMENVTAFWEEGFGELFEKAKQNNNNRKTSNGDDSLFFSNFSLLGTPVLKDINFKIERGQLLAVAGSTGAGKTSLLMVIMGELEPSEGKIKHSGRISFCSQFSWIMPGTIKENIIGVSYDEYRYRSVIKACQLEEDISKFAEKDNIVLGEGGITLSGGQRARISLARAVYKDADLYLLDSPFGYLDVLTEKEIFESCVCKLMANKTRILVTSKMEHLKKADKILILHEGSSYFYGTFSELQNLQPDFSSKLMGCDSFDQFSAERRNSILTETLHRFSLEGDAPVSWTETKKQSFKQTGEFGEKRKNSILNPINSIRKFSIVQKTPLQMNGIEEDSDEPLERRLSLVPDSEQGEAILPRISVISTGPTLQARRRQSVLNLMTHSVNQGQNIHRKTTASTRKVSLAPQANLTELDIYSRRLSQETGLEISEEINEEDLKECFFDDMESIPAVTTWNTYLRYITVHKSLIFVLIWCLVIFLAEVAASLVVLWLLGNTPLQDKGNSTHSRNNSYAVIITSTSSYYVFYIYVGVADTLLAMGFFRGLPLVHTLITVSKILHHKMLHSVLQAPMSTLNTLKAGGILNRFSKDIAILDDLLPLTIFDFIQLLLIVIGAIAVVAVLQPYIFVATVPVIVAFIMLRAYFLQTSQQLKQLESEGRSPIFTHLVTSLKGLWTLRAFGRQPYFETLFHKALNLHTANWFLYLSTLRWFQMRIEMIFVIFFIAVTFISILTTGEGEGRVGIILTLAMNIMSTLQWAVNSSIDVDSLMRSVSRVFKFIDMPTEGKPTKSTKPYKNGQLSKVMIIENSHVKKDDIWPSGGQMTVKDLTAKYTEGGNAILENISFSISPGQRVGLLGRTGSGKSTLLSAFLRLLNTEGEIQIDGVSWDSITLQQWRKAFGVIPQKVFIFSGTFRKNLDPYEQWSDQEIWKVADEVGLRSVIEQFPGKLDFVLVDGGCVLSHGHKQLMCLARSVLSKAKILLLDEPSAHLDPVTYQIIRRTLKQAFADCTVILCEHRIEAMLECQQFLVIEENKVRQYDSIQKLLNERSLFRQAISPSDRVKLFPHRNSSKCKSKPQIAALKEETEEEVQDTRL

| EC50 [1] [nM] | Emax [2] [%] | SMILES | EC50 [3] [nM] | Emax [4] [%] |
| --- | --- | --- | --- | --- |
| 650 | 350 | CC(C)C[C@H]1C(=O)N(C)[C@H](C)C(=O)N[C@H](Cc2ccccc2)COc2ccc3nccn3c2C(=O)N[C@H](C(=O)NCCc2cc(C3CC3)no2)CC(=O)N1C [Example 790, (3S,7S,10R,13R)-13-benzyl-N-(2-(3-cyclopropylisoxazol-5-yl)ethyl)-7-isobutyl-6,9,10-trimethyl-1,5,8,11-tetraoxo-1,2,3,4,5,6,7,8,9,10,11,12,13,14-tetradecahydroimidazo[1′,2′:1,6]pyrido[2,3-p][1]oxa[4,7,10,14]tetraazacycloheptadecine-3-carboxamide] | – | – |
| 80 | 345 | COc1cc(CCNC(=O)[C@@H]2CC(=O)N(C)[C@@H](CC(C)C)C(=O)N(C)[C@H](CC(F)(F)F)C(=O)N[C@H](Cc3ccccc3)COc3cc(C)nc(OC)c3C(=O)N2)on1 [Example 791, (3R,6R,9S,13S)-3-benzyl-9-isobutyl-16-methoxy-N-(2-(3-methoxyisoxazol-5-yl)ethyl)-7,10,18-trimethyl-5,8,11,15-tetraoxo-6-(2,2,2-trifluoroethyl)-2,3,4,5,6,7,8,9,10,11,12,13,14,15-tetradecahydropyrido[3,4-p][1]oxa[4,7,10,14]tetraazacycloheptadecine-13-carboxamide] | – | – |
| 628 | 261 | COc1cc(CCNC(=O)[C@@H]2CC(=O)N(C)[C@@H](CC(C)C)C(=O)N(C)[C@@H](CC(F)(F)F)C(=O)N[C@H](Cc3ccccc3)COc3cc(C)nc(OC)c3C(=O)N2)on1 [Example 792, (3R,6S,9S,13S)-3-benzyl-9-isobutyl-16-methoxy-N-(2-(3-methoxyisoxazol-5-yl)ethyl)-7,10,18-trimethyl-5,8,11,15-tetraoxo-6-(2,2,2-trifluoroethyl)-2,3,4,5,6,7,8,9,10,11,12,13,14,15-tetradecahydropyrido[3,4-p][1]oxa[4,7,10,14]tetraazacycloheptadecine-13-carboxamide] | – | – |
| 141 | 384 | COc1cc(CCNC(=O)[C@@H]2CC(=O)N(C)[C@@H](CC(C)C)C(=O)N(C)[C@H](Cc3nc(-c4ccc(F)cn4)no3)C(=O)N[C@H](Cc3ccccc3)COc3ccc4ncc(F)cc4c3C(=O)N2)on1 [Example 795, (3S,7S,10R,13R)-13-benzyl-20-fluoro-10-((3-(5-fluoropyridin-2-yl)-1,2,4-oxadiazol-5-yl)methyl)-7-isobutyl-N-(2-(3-methoxyisoxazol-5-yl)ethyl)-6,9-dimethyl-1,5,8,11-tetraoxo-1,2,3,4,5,6,7,8,9,10,11,12,13,14-tetradecahydro-[1]oxa[4,7,10,14]tetraazacycloheptadecino[16,17-f]quinoline-3-carboxamide] | – | – |
| 156 | 321 | COc1cc(CCNC(=O)[C@@H]2CC(=O)N(C)[C@@H](CC(C)C)C(=O)N3CCCC[C@@H]3C(=O)N[C@H](Cc3ccccc3)COc3ccc4cnc(C)cc4c3C(=O)N2)on1 [Example 796, (9S,13S,19aR,22R)-22-benzyl-13-isobutyl-N-(2-(3-methoxyisoxazol-5-yl)ethyl)-5,12-dimethyl-7,11,14,20-tetraoxo-7,8,9,10,11,12,13,14,17,18,19,19a,20,21,22,23-hexadecahydro-16H-pyrido[2′,1′:6,7][1]oxa[4,7,10,14]tetraazacycloheptadecino[16,17-f]isoquinoline-9-carboxamide] | – | – |
| 399 | 308 | CC(C)C[C@H]1C(=O)N(C)[C@H](C)C(=O)N[C@H](Cc2ccccc2)COc2ccc3ncc(F)cc3c2C(=O)N[C@H](C(=O)NCCc2cc(C3CC3)no2)CC(=O)N1C [Example 797, (3S,7S,10R,13R)-13-benzyl-N-(2-(3-cyclopropylisoxazol-5-yl)ethyl)-20-fluoro-7-isobutyl-6,9,10-trimethyl-1,5,8,11-tetraoxo-1,2,3,4,5,6,7,8,9,10,11,12,13,14-tetradecahydro-[1]oxa[4,7,10,14]tetraazacycloheptadecino[16,17-f]quinoline-3-carboxamide] | – | – |
| – | – | CC(C)C[C@H]1C(=O)N(C)[C@H](C)C(=O)N[C@H](Cc2ccccc2)COc2ccc3ncc(F)cc3c2C(=O)N[C@H](C(=O)NCCc2cc(C3CC3)on2)CC(=O)N1C [Example 798, (3S,7S,10R,13R)-13-benzyl-N-(2-(5-cyclopropylisoxazol-3-yl)ethyl)-20-fluoro-7-isobutyl-6,9,10-trimethyl-1,5,8,11-tetraoxo-1,2,3,4,5,6,7,8,9,10,11,12,13,14-tetradecahydro-[1]oxa[4,7,10,14]tetraazacycloheptadecino[16,17-f]quinoline-3-carboxamide] | 197 | 324 |
| – | – | CC(C)C[C@H]1C(=O)N(C)[C@H](C)C(=O)N[C@H](Cc2ccccc2)COc2ccc3ncc(F)cc3c2C(=O)N[C@H](C(=O)NCCc2noc(C3CC3)n2)CC(=O)N1C [Example 799, (3S,7S,10R,13R)-13-benzyl-N-(2-(5-cyclopropyl-1,2,4-oxadiazol-3-yl)ethyl)-20-fluoro-7-isobutyl-6,9,10-trimethyl-1,5,8,11-tetraoxo-1,2,3,4,5,6,7,8,9,10,11,12,13,14-tetradecahydro-[1]oxa[4,7,10,14]tetraazacycloheptadecino[16,17-f]quinoline-3-carboxamide] | 258 | 335 |
| – | – | CC(C)C[C@H]1C(=O)N(C)[C@H](C)C(=O)N[C@H](Cc2ccccc2)COc2ccc3ncc(F)cc3c2C(=O)N[C@H](C(=O)NCCc2nc(C3CC3)no2)CC(=O)N1C [Example 800, (3S,7S,10R,13R)-13-benzyl-N-(2-(3-cyclopropyl-1,2,4-oxadiazol-5-yl)ethyl)-20-fluoro-7-isobutyl-6,9,10-trimethyl-1,5,8,11-tetraoxo-1,2,3,4,5,6,7,8,9,10,11,12,13,14-tetradecahydro-[1]oxa[4,7,10,14]tetraazacycloheptadecino[16,17-f]quinoline-3-carboxamide] | 266 | 352 |
| – | – | CC(C)C[C@H]1C(=O)N(C)[C@H](CC(F)F)C(=O)N[C@H](Cc2ccccc2)COc2ccc3ncc(F)cc3c2C(=O)N[C@H](C(=O)NCCc2noc(C3CC3)n2)CC(=O)N1C [Example 801, (3S,7S,10R,13R)-13-benzyl-N-(2-(5-cyclopropyl-1,2,4-oxadiazol-3-yl)ethyl)-10-(2,2-difluoroethyl)-20-fluoro-7-isobutyl-6,9-dimethyl-1,5,8,11-tetraoxo-1,2,3,4,5,6,7,8,9,10,11,12,13,14-tetradecahydro-[1]oxa[4,7,10,14]tetraazacycloheptadecino[16,17-f]quinoline-3-carboxamide] | 149 | 330 |
| – | – | CC(C)C[C@H]1C(=O)N(C)[C@@H](CC(F)F)C(=O)N[C@H](Cc2ccccc2)COc2ccc3ncc(F)cc3c2C(=O)N[C@H](C(=O)NCCc2noc(C3CC3)n2)CC(=O)N1C [Example 802, (3S,7S,10S,13R)-13-benzyl-N-(2-(5-cyclopropyl-1,2,4-oxadiazol-3-yl)ethyl)-10-(2,2-difluoroethyl)-20-fluoro-7-isobutyl-6,9-dimethyl-1,5,8,11-tetraoxo-1,2,3,4,5,6,7,8,9,10,11,12,13,14-tetradecahydro-[1]oxa[4,7,10,14]tetraazacycloheptadecino[16,17-f]quinoline-3-carboxamide] | 723 | 200 |
| – | – | CC[C@@H]1C(=O)N[C@H](Cc2ccccc2)COc2ccc3ncc(F)cc3c2C(=O)N[C@H](C(=O)NCCc2noc(C3CC3)n2)CC(=O)N(C)[C@@H](CC(C)C)C(=O)N1C [Example 803, (3S,7S,10R,13R)-13-benzyl-N-(2-(5-cyclopropyl-1,2,4-oxadiazol-3-yl)ethyl)-10-ethyl-20-fluoro-7-isobutyl-6,9-dimethyl-1,5,8,11-tetraoxo-1,2,3,4,5,6,7,8,9,10,11,12,13,14-tetradecahydro-[1]oxa[4,7,10,14]tetraazacycloheptadecino[16,17-f]quinoline-3-carboxamide] | 248 | 355 |
| – | – | CC(C)C[C@H]1C(=O)N(C)[C@H](Cc2nc(-c3ccc(F)cn3)no2)C(=O)N[C@H](Cc2ccccc2)COc2ccc3ncc(F)cc3c2C(=O)N[C@H](C(=O)NCCn2nnc(C3CC3)n2)CC(=O)N1C [Example 804, (3S,7S,10R,13R)-13-benzyl-N-(2-(5-cyclopropyl-2H-tetrazol-2-yl)ethyl)-20-fluoro-10-((3-(5-fluoropyridin-2-yl)-1,2,4-oxadiazol-5-yl)methyl)-7-isobutyl-6,9-dimethyl-1,5,8,11-tetraoxo-1,2,3,4,5,6,7,8,9,10,11,12,13,14-tetradecahydro-[1]oxa[4,7,10,14]tetraazacycloheptadecino[16,17-f]quinoline-3-carboxamide] | 115 | 360 |

| SMILES | EC50 [1] [nM] | Emax [2] [%] | EC50 [3] [nM] | Emax [4] [%] |
| --- | --- | --- | --- | --- |
| CC(C)C[C@H]1C(=O)N2CCCC[C@H]2C(=O)N[C@H](Cc2ccccc2)COc2ccc3ncc(F)cc3c2C(=O)N[C@H](C(=O)NCCc2noc(C3CC3)n2)CC(=O)N1C [Example 793, (9S,13S,19aS,22R)-22-benzyl-N-(2-(5-cyclopropyl-1,2,4-oxadiazol-3-yl)ethyl)-5-fluoro-13-isobutyl-12-methyl-7,11,14,20-tetraoxo-7,8,9,10,11,12,13,14,17,18,19,19a,20,21,22,23-hexadecahydro-16H-pyrido[2′,11:6,7][1]oxa[4,7,10,14]tetraazacycloheptadecino[16,17-f]quinoline-9-carboxamide] | 235 | 105 | – | – |
| CC(C)C[C@H]1C(=O)N(C)[C@H](Cc2nc(-c3ccc(F)cn3)no2)C(=O)N[C@H](Cc2ccccc2)COc2ccc3ncc(F)cc3c2C(=O)N[C@H](C(=O)NCCc2noc(C3CC3)n2)CC(=O)N1C [Example 794, (3S,7S,10R,13R)-13-benzyl-N-(2-(5-cyclopropyl-1,2,4-oxadiazol-3-yl)ethyl)-20-fluoro-10-((3-(5-fluoropyridin-2-yl)-1,2,4-oxadiazol-5-yl)methyl)-7-isobutyl-6,9-dimethyl-1,5,8,11-tetraoxo-1,2,3,4,5,6,7,8,9,10,11,12,13,14-tetradecahydro-[1]oxa[4,7,10,14]tetraazacycloheptadecino[16,17-f]quinoline-3-carboxamide] | 83 | 354 | – | – |
